The values below come from patent US20240018158A1, “BRM TARGETING COMPOUNDS AND ASSOCIATED METHODS OF USE” (Prelude Therapeutics Incorporated, priority 2020, published 2024).

In the assay the target is SMARCA2 (Homo sapiens (Human), UniProt P51531). In words: SMARCA2 HiBiT degradation assay in HEK293T cells. Type of assay: cell-based. Conditions: 293T HiBiT assay, 24 h; for DC50: read-out: DC50 (SM2-293T) SMARCA2 degradation potency; for Dmax: HEK-293T, read-out: Dmax % (SM2-293T) maximum SMARCA2 degradation within the concentrations tested. As for the experimental part:
HiBiT peptide knock-in of SMARCA2 in LgBiT expressing HEK293T cells was performed by CRISPR-mediated tagging system as described Promega. The homozygous HiBiT knock-in on c-terminus SMARCA2 was confirmed by sanger sequence. SMARCA2-HiBiT knock-in Hela monoclonal cell (CS302366) and SMARCA4-HiBiT knock-in Hela monoclonal cell (CS3023226) were purchased from Promega. The heterozygous HiBiT-knock-in was confirmed by sanger sequence in both SMARCA2-HiBiT and SMARCA4-HiBiT monoclonal cells. Compounds were prepared in a low dead volume plate at 3-fold serial dilution, and then transferred 25 nL/well into a 384 well plate (Corning: #356661) by Agilent Bravo liquid dispenser. SMARCA2-HiBiT monoclonal HEK293T cells were added at 5,000/well/25 uL into the compound containing 384 well plate. After 24 h incubation, 25 uL/well of Nano-Glo HiBiT Lytic detection buffer (Promega: N3050) was added to the wells and incubate for 10 min on a shaker, centrifuged for 5 min, and then RLU was detected on a microplate reader (Envision, PerkinElmer). The RLU ratio values are normalized to percent inhibition as follows: % inhibition=((HC−LC)−(compound−LC))/(HC−LC))*100, where HC=high control=mean signal of DMSO only; LC=low control=mean signal of 100% inhibition of RLU by 1 μM PRT1001728. An 11-point dose response curve for each compound will be generated using normalized % inhibition to determine IC50 values based on the equation: Y=Bottom+((Top-Bottom)/(1+((IC50/X)^Slope))), where Y is the % inhibition in the presence of X inhibitor concentration; Top=the top plateau of the curve; Bottom=the bottom plateau of the curve; Slope=Hill coefficient; DC50=concentration of compound with 50% degradation in relation to top/high control. DC50 values were determined by using XLfit Model 205.
(HiBiT is a short tag that completes a luciferase, so light tracks the accessible tagged protein.)

Sequence of SMARCA2 (P51531 whole entry): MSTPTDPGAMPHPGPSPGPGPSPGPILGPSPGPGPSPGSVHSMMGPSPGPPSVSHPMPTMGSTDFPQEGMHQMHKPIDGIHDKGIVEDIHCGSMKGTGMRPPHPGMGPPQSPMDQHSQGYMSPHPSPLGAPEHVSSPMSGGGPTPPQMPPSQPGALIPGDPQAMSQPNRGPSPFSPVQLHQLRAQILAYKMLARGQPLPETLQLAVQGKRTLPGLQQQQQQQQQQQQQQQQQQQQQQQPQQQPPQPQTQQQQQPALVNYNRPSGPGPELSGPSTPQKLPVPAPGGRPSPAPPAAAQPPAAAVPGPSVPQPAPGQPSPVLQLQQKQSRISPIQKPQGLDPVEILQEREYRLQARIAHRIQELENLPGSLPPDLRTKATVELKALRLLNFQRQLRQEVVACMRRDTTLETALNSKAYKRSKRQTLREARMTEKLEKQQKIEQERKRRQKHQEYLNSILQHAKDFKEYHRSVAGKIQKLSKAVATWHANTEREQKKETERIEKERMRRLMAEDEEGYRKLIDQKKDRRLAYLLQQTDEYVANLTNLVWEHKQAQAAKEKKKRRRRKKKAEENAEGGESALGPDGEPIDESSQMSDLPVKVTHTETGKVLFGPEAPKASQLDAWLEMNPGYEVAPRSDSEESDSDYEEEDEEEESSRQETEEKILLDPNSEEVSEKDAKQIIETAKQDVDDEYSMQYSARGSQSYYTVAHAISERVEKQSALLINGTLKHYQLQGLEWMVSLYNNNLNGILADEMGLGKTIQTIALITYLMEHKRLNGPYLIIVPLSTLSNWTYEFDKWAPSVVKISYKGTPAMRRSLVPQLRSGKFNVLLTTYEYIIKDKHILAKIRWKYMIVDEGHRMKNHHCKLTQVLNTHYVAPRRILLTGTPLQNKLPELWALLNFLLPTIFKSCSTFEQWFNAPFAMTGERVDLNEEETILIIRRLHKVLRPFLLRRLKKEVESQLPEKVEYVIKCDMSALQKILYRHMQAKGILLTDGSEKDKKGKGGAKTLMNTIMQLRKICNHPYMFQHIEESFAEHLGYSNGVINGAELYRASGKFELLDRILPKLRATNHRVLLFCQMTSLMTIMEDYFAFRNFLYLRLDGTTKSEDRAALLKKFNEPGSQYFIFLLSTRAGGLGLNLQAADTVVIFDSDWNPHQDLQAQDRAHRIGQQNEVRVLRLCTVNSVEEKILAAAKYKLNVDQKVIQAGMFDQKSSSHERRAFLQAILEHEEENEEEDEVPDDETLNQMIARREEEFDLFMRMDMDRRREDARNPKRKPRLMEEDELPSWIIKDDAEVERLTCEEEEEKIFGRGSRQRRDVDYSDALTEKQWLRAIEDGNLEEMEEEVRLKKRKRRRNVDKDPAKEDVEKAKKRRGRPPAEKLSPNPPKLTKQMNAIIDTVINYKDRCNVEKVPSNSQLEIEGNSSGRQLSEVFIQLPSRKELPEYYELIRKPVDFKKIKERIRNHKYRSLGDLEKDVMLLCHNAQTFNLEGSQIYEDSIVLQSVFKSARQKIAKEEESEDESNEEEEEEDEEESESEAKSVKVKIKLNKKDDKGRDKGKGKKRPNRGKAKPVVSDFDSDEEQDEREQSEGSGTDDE

By DC50 is commonly meant the concentration at which degradation of the target reaches its halfway point. On to `Cc1ncsc1-c1ccc([C@H](C)NC(=O)[C@@H]2C[C@@H](O)CN2C(=O)[C@@H](c2cc(OCCN3CCC(N4CCN5c6cc(-c7ccccc7O)nnc6NC[C@H]5C4)C3)no2)C(C)C)cc1` (single isomer, unassigned) [Example 18], for which the DC50 was under 100 nM.

As to `Cc1ncsc1-c1ccc([C@H](C)NC(=O)[C@@H]2C[C@@H](O)CN2C(=O)[C@@H](c2cc(OCCN3CCC(N4CCN5c6cc(-c7ccccc7O)nnc6NC[C@H]5C4)C3)no2)C(C)C)cc1` (single isomer, unassigned) [Example 19], the DC50 is under 100 nM and the Dmax was over 75%.

`Cc1ncsc1-c1ccc([C@H](C)NC(=O)[C@@H]2C[C@@H](O)CN2C(=O)[C@@H](c2cc(OCC(=O)N3CCC(N4CCN5c6cc(-c7ccccc7O)nnc6NC[C@H]5C4)C(C)C3)no2)C(C)C)cc1` (single isomer, unassigned) [Example 31]: the DC50 was under 100 nM and the Dmax is over 75%.

As to `Cc1ncsc1-c1ccc([C@H](C)NC(=O)[C@@H]2C[C@@H](O)CN2C(=O)[C@@H](c2cc(OCCN3CCC(N4CCN5c6cc(-c7ccccc7O)nnc6NC[C@H]5C4)C(C)C3)no2)C(C)C)cc1` (single isomer, unassigned) [Example 56], the DC50 is under 100 nM and the Dmax was over 75%.

`Cc1ncsc1-c1ccc([C@H](C)NC(=O)[C@@H]2C[C@@H](O)CN2C(=O)[C@@H](c2cc(OCCN3CCCC(CN4CCN5c6cc(-c7ccccc7O)nnc6NC[C@H]5C4)C3)no2)C(C)C)cc1` (single isomer, unassigned) [Example 85]: the DC50 is under 100 nM and the Dmax was over 75%.

Turning to `Cc1ncsc1-c1ccc([C@H](C)NC(=O)[C@@H]2C[C@@H](O)CN2C(=O)[C@@H](c2cc(CCCN3CCCC(CN4CCN5c6cc(-c7ccccc7O)nnc6NC[C@H]5C4)C3)no2)C(C)C)cc1` (single isomer, unassigned) [Example 88], the DC50 was under 100 nM and the Dmax is over 75%.

In the case of `Cc1ncsc1-c1ccc([C@H](C)NC(=O)[C@@H]2C[C@@H](O)CN2C(=O)[C@@H](c2cc(CCCN3CCCC(CN4CCN5c6cc(-c7ccccc7O)nnc6NC[C@H]5C4)C3)no2)C(C)C)cc1` (single isomer, unassigned) [Example 89], the DC50 was under 100 nM.

Regarding `Cc1ncsc1-c1ccc([C@H](C)NC(=O)[C@@H]2C[C@@H](O)CN2C(=O)[C@H](NC(=O)OCCN2CCN3c4cc(-c5ccccc5O)nnc4NCC3C2)C(C)(C)C)cc1` (stereo partly drawn) [Example 7, 2-(2-(2-hydroxyphenyl)-5,6,6a,7,9,10-hexahydro-8H-pyrazino[1′,2′:4,5]pyrazino[2,3-c]pyridazin-8-yl)ethyl ((R)-1-((2S,4R)-4-hydroxy-2-(((S)-1-(4-(4-methylthiazol-5-yl)phenyl)ethyl)carbamoyl)pyrrolidin-1-yl)-3,3-dimethyl-1-oxobutan-2-yl)carbamate], the DC50 is 100 to 1000 nM and the Dmax was over 75%.

For `Cc1ncsc1-c1ccc([C@H](C)NC(=O)[C@@H]2C[C@@H](O)CN2C(=O)[C@@H](NC(=O)CCN2CCC(CN3CCN4c5cc(-c6ccccc6O)nnc5NCC4C3)CC2)C(C)(C)C)cc1` (stereo partly drawn) [Example 8, (2S,4R)-4-hydroxy-1-((2S)-2-(3-(4-((2-(2-hydroxyphenyl)-5,6,6a,7,9,10-hexahydro-8H-pyrazino[1′,2′:4,5]pyrazino[2,3-c]pyridazin-8-yl)methyl)piperidin-1-yl)propanamido)-3,3-dimethylbutanoyl)-N-((S)-1-(4-(4-methylthiazol-5-yl)phenyl)ethyl)pyrrolidine-2-carboxamide], the DC50 lay in the range of 100 to 1000 nM and the Dmax was over 75%.

`CC(=O)O[C@@H]1C[C@@H](C(=O)N[C@@H](C)c2ccc(-c3scnc3C)cc2)N(C(=O)[C@@H](c2cc(OCCN3CCN4c5cc(-c6ccccc6O)nnc5NCC4C3)no2)C(C)C)C1` (stereo partly drawn) [Example 9, (3R,5S)-1-((2R)-2-(3-(2-(2-(2-hydroxyphenyl)-5,6,6a,7,9,10-hexahydro-8H-pyrazino[1′,2′:4,5]pyrazino[2,3-c]pyridazin-8-yl)ethoxy)isoxazol-5-yl)-3-methylbutanoyl)-5-(((S)-1-(4-(4-methylthiazol-5-yl)phenyl)ethyl)carbamoyl)pyrrolidin-3-yl acetate]: the DC50 was under 100 nM and the Dmax is over 75%.

On to `Cc1ncsc1-c1ccc([C@H](C)NC(=O)[C@@H]2C[C@@H](OC(=O)C(C)C)CN2C(=O)[C@@H](c2cc(OCCN3CCN4c5cc(-c6ccccc6O)nnc5NC[C@H]4C3)no2)C(C)C)cc1` [Example 10, (3R,5S)-1-((R)-2-(3-(2-((S)-2-(2-hydroxyphenyl)-5,6,6a,7,9,10-hexahydro-8H-pyrazino[1′,2′:4,5]pyrazino[2,3-c]pyridazin-8-yl)ethoxy)isoxazol-5-yl)-3-methylbutanoyl)-5-(((S)-1-(4-(4-methylthiazol-5-yl)phenyl)ethyl)carbamoyl)pyrrolidin-3-yl isobutyrate], for which the DC50 was under 100 nM and the Dmax is over 75%.

Take `Cc1ncsc1-c1ccc([C@H](C)NC(=O)[C@@H]2C[C@@H](O)CN2C(=O)[C@@H](NC(=O)CN2CCC(N3CCN4c5cc(-c6ccccc6O)nnc5NC[C@H]4C3)CC2)C(C)(C)C)cc1` [Example 11, (2S,4R)-4-hydroxy-1-((S)-2-(2-(4-((S)-2-(2-hydroxyphenyl)-5,6,6a,7,9,10-hexahydro-8H-pyrazino[1′,2′:4,5]pyrazino[2,3-c]pyridazin-8-yl)piperidin-1-yl)acetamido)-3,3-dimethylbutanoyl)-N-((S)-1-(4-(4-methylthiazol-5-yl)phenyl)ethyl)pyrrolidine-2-carboxamide]: the DC50 was under 100 nM and the Dmax is over 75%.

Consider `Cc1ncsc1-c1ccc([C@H](C)NC(=O)[C@@H]2C[C@@H](O)CN2C(=O)[C@@H](c2cc(OCCN3CC4CC(C3)C4N3CCN4c5cc(-c6ccccc6O)nnc5NCC4C3)no2)C(C)C)cc1` (stereo partly drawn) [Example 12, (2S,4R)-4-hydroxy-1-((2R)-2-(3-(2-(6-(2-(2-hydroxyphenyl)-5,6,6a,7,9,10-hexahydro-8H-pyrazino[1′,2′:4,5]pyrazino[2,3-c]pyridazin-8-yl)-3-azabicyclo[3.1.1]heptan-3-yl)ethoxy)isoxazol-5-yl)-3-methylbutanoyl)-N-((S)-1-(4-(4-methylthiazol-5-yl)phenyl)ethyl)pyrrolidine-2-carboxamide], for which the DC50 lay within 100 to 1000 nM and the Dmax was over 75%.

For the molecule `Cc1ncsc1-c1ccc([C@H](C)NC(=O)[C@@H]2C[C@@H](O)CN2C(=O)[C@@H](c2cc(OCCN3CC4(CC(N5CCN6c7cc(-c8ccccc8O)nnc7NCC6C5)C4)C3)no2)C(C)C)cc1` (stereo partly drawn) [Example 13, (2S,4R)-4-hydroxy-1-((2R)-2-(3-(2-(6-(2-(2-hydroxyphenyl)-5,6,6a,7,9,10-hexahydro-8H-pyrazino[1′,2′:4,5]pyrazino[2,3-c]pyridazin-8-yl)-2-azaspiro[3.3]heptan-2-yl)ethoxy)isoxazol-5-yl)-3-methylbutanoyl)-N-((S)-1-(4-(4-methylthiazol-5-yl)phenyl)ethyl)pyrrolidine-2-carboxamide], the DC50 is under 100 nM and the Dmax is over 75%.

In the case of `Cc1ncsc1-c1ccc([C@H](C)NC(=O)[C@@H]2C[C@@H](O)CN2C(=O)[C@@H](c2cc(OCCN3CCC(N4CCN5c6cc(-c7ccccc7O)nnc6NC[C@H]5C4)C(F)C3)no2)C(C)C)cc1` (stereo partly drawn) [Example 14, (2S,4R)-1-((2R)-2-(3-(2-(3-fluoro-4-((S)-2-(2-hydroxyphenyl)-5,6,6a,7,9,10-hexahydro-8H-pyrazino[1′,2′:4,5]pyrazino[2,3-c]pyridazin-8-yl)piperidin-1-yl)ethoxy)isoxazol-5-yl)-3-methylbutanoyl)-4-hydroxy-N-((S)-1-(4-(4-methylthiazol-5-yl)phenyl)ethyl)pyrrolidine-2-carboxamide], the 50% degradation concentration (DC50) is under 100 nM and the Dmax was over 75%.

Take `Cc1ncsc1-c1ccc([C@H](C)NC(=O)[C@@H]2C[C@@H](O)CN2C(=O)[C@@H](c2cc(OCCN3CCC(CN4CCN5c6cc(-c7ccccc7O)nnc6NC[C@H]5C4)C3)no2)C(C)C)cc1` (stereo partly drawn) [Example 15, (2S,4R)-4-hydroxy-1-((2R)-2-(3-(2-(3-(((S)-2-(2-hydroxyphenyl)-5,6,6a,7,9,10-hexahydro-8H-pyrazino[1′,2′:4,5]pyrazino[2,3-c]pyridazin-8-yl)methyl)pyrrolidin-1-yl)ethoxy)isoxazol-5-yl)-3-methylbutanoyl)-N-((S)-1-(4-(4-methylthiazol-5-yl)phenyl)ethyl)pyrrolidine-2-carboxamide]: the DC50 was under 100 nM and the Dmax is over 75%.
